Test results taken from patent US20230050846A1, “TREATMENT OF HEPATIC AND CARDIOVASCULAR DISORDERS” (LIFESEARCH, priority 2019, published 2023).
Peptide text beside a SMILES is read from it. * marks the point of attachment. Palmitoyl = CCCCCCCCCCCCCCCC(=O)*

Key:
HepG2 cells = assay: Oleate/palmitate-induced steatosis, intracellular triglyceride content; assay type: cell-based, human; conditions: 1 μM, last 24 h of 48 h oleate/palmitate 0.5 mM (2:1)
Experimental: A solution containing 250 mM palmitate (P0500, Sigma-Aldrich) was first prepared in 0.1 M NaOH at 70 C for 30 min then diluted in DMEM low glucose (D5546, Sigma-Aldrich) containing 10% fatty acid-free BSA (A7030, Sigma-Aldrich) to yield a 10 mM palmitate solution and allowed to dissolve for 30 min at 37° C., filter sterilized and stored in glass vial at −20 C until use. This palmitate stock solution and ready to use oleate solution (03008, Sigma-Aldrich) were used to prepared a 0.5 mM solution at a 2:1 ratio of oleate to palmitate in complete culture medium containing DMEM low glucose, 10% fetal bovine serum, 1% Penicillin-Streptomycin and 1% fatty acid-free BSA.
HepG2 cell were grown in 12-well plates to 60-70% confluence then exposed for 48 h to culture medium (DMEM low glucose, 10% fetal bovine serum, 1% Penicillin-Streptomycin and 1% fatty acid-free BSA) alone or containing 0.5 mM oleate/palmitate mixture (2:1) to induce steatosis. For the last 24 h of the 48 h period, cells were treated with 1 μM of the peptide of formula (I) or the peptide of formula (II).
For measurement of intracellular triglyceride content, cells were washed with PBS and scraped in 5% NP-40 lysis buffer and heated for 10 min at 85° C. Triglycerides were then quantified using triglyceride commercial kit (Biolabo #87319). Values were normalized to protein concentration in cell lysates.

[1] = biological target: T1, ecto-F1-ATPase (HepG2 cells) (Homo sapiens, UniProt P06576); assay: ecto-F1-ATPase activity: extracellular ADP content, luciferin-luciferase assay; assay type: cell-based; conditions: HepG2, 5 min; for extracellular ADP concentration (ecto-F1-ATPase hydrolytic activity): peptide 0.1 to 5 μM (formula (I)) or 1 μM, effect blunted by IF1 1 μM
T1 construct: host or cells: HepG2
Experimental: The human hepatocyte cell line HepG2 was obtained from the American Type Culture Collection (#HB-8065). HepG2 were cultured in Dulbecco's Modified Eagle's Medium (DMEM)—high glucose (D0822, Sigma-Aldrich) supplemented with 10% fetal bovine serum (10270098, Life technologies), 1% Penicillin-Streptomycin solution (P0781, Sigma-Aldrich). HepG2 cells were seeded on 24-well plates at 75,000 cells/well (Day 0). After 24 hours of growing, cells were serum starved for 24 h in order to synchronize cell cycles (Day 1) and then replaced additional 24 h in complete cell growth medium (Day 2). On day 3, cells were washed and equilibrated in fresh DMEM—high glucose without red phenol for 1 h (D1145, Sigma-Aldrich).
The cells were then treated 5 min with different concentration of peptide of formula (I) (0.1 to 5 μM), the peptide of formula (II) (1 μM), SCR (1 μM), SCR-K-16 (1 μM) or apoA-I (10 μg/mL) purified from human plasma.
Specific ecto-F1-ATPase activation was assessed in the presence of IF1 protein (1 μM), a natural inhibitor of F1-ATPase that interacts with the β-subunit to inhibit the ATP hydrolysis activity [5].
Supernatants were then collected and centrifuged (10,000 g, 5 min, 4° C.) and processed for ADP and ATP measurement. For ADP measurement, ADP was converted into ATP in 150 mM NaCl, 5 mM KCl, 2 mM MgCl2, pH 7.5 buffer containing 0.5 mM phosphoenolpyruvate (PEP) and pyruvate kinase (PK, 6 U per point for 15 min at 37° C.). For ATP measurement, 100 μl of sample was analyzed using the ATP bioluminescence assay kit CLS II (Roche Diagnostics). Samples were added to the ATP assay mixture and luminescence was measured in a microplate reader Infinite F500 (Tecan, Switzerland) for 1000 ms. The ATP standard curve was produced in the same medium as the samples and in the 10^−5 to 10^−10 M concentration range. The ADP concentration was then calculated as the ATP concentration following ADP conversion minus the basal ATP concentration. Data are expressed as nanomoles of ADP produced.

HUVEC cells = assay: Endothelial nitric oxide (NO) production, DAF-FM-DA probe; assay type: cell-based, human; conditions: 1 μM, 10 min; abolished by IF1
Experimental: Nitric oxide (NO) was detected using a DAF-FM-DA probe (D2321, Sigma-Aldrich) which forms fluorescent benzotriazole when it reacts with NO. HUVEC cells (PromoCell #C-12203) were seeded in 96-well plates (10,000 cells per well) and cultured in endothelial cell basal medium 2 (PromoCell #C-22211) supplemented with GM2 supplement Mix (PromoCell #C-39211), until 80-90% confluence. The medium was then replaced with M-199 without serum for 4 h, and the cells were incubated for 45 min with DAF-FM-DA (5 μM) diluted in PBS. Cells were treated with increasing concentrations of the different peptides or apoA-I (10 μM) purified from human plasma or histamine (1 mM) as positive control. In another set of experiments, cells were incubated with inhibitors (IF1, 1 μM) for 10 min before treatment with peptides or apoA-I. The fluorescence was recorded for 30 min (λex=495 nm, λem=515 nm) with a Tecan Flash Multimode Reader (Thermo Fisher Scientific). Fluorescence for each condition was compared with the value obtained in untreated cells, and results were expressed as the fold change as compared with the basal condition (untreated cells).

Row | Compound | reduction of fatty acid-induced intracellular accumulation of triglycerides compared to PBS control (HepG2 cells) [%] | extracellular ADP concentration (ecto-F1-ATPase hydrolytic activity) [1] | stimulation of NO production by endothelial cells (HUVEC cells) | concentration at which maximum efficacy on extracellular ADP is reached [1] [µM]
1 | CCCCCCCCCCCCCCCC(=O)NCCCC[C@H](NC(=O)[C@H](CCC(=O)O)NC(=O)[C@H](CCCNC(=N)N)NC(=O)[C@H](CO)NC(=O)[C@H](CCC(N)=O)NC(=O)[C@H](C)NC(=O)[C@H](CCCNC(=N)N)NC(=O)[C@H](Cc1ccccc1)NC(=O)[C@H](Cc1ccc(O)cc1)NC(=O)[C@H](CCCNC(=N)N)NC(=O)[C@H](CCC(=O)O)NC(=O)[C@H](CCC(=O)O)NC(=O)[C@H](CCC(=O)O)NC(=O)[C@H](C)NC(=O)[C@H](CCC(N)=O)NC(=O)[C@H](CCC(=O)O)NC(=O)[C@H](CCCNC(=N)N)NC(=O)[C@H](CCCCN)NC(=O)CNC(=O)[C@H](Cc1ccccc1)NC(=O)[C@H](C)NC(=O)CNC(=O)CNC(=O)[C@H](C)NC(=O)[C@H](CCC(=O)O)NC(=O)[C@H](CCCNC(=N)N)NC(=O)[C@@H](NC(=O)[C@H](CO)NC(=O)CNC(=O)[C@H](C)NC(=O)CNC(=O)[C@H](CCCNC(=N)N)NC(C)=O)[C@@H](C)CC)C(N)=O [peptide of formula (II), CH3CO-[SEQ ID NO: 1]-K-[palmitoyl]-NH2] (Ac-RGAGSIREAGGAFGKREQAEEERYFRAQSREK(Palmitoyl)-NH2) | 32 | stimulated | about 50% | 
2 | Ac-RGAGSIREAGGAFGKREQAEEERYFRAQSRE-NH2 [peptide of formula (I), CH3CO-[SEQ ID NO: 1]-NH2] | 18 | increased | about 50% | 1
